# Reference: ChEMBL document CHEMBL3885881, “DrugMatrix”
# Species: Rattus norvegicus
# Assay: DrugMatrix - Regimen: Daily Repeat
# Type: toxicity, organism-based, Sprague-Dawley
# Parameters: regimen Daily Repeat, gender Male, age 6-8 weeks
# Conditions: in vivo, sc, 4 mg/kg, route subcutaneous, dose level High, […]; for ABSOLUTE BASOPHIL / ABSOLUTE EOSINOPHIL / ABSOLUTE LYMPHOCYTE / ABSOLUTE MONOCYTE / ABSOLUTE SEGMENTED NEUTROPHIL / BASOPHIL / EOSINOPHIL / ERYTHROCYTE COUNT / HEMATOCRIT / HEMOGLOBIN / LEUKOCYTE COUNT / LYMPHOCYTE / MEAN CORPUSCULAR HEMOGLOBIN / MEAN CORPUSCULAR HEMOGLOBIN CONCENTRATION / MEAN CORPUSCULAR VOLUME / MONOCYTE / NEUTROPHIL / NUCLEATED RED BLOOD CELLS / PLATELET COUNT: tissue Blood; for ALANINE AMINOTRANSFERASE / ALBUMIN / ALKALINE PHOSPHATASE / ASPARTATE AMINOTRANSFERASE / BLOOD UREA NITROGEN / CARBON DIOXIDE / CHLORIDE / CHOLESTEROL / CREATINE PHOSPHOKINASE / CREATININE / GLUCOSE / LACTATE DEHYDROGENASE / LIPASE / PHOSPHORUS / POTASSIUM / SODIUM / TOTAL BILIRUBIN / TOTAL PROTEIN / URIC ACID: tissue Plasma
smiles,measurement,setting,value
COc1cc([C@@H]2c3cc4c(cc3[C@H](O)[C@H]3COC(=O)[C@H]23)OCO4)cc(OC)c1OC [PODOFILOX],ABSOLUTE BASOPHIL,"72 h, time 3 day",0 CELLS/uL
same,ABSOLUTE EOSINOPHIL,"72 h, time 3 day",70.67 CELLS/uL
same,ABSOLUTE LYMPHOCYTE,"72 h, time 3 day",10536.33 CELLS/uL
same,ABSOLUTE MONOCYTE,"72 h, time 3 day",257.67 CELLS/uL
same,ABSOLUTE SEGMENTED NEUTROPHIL,"72 h, time 3 day",768.67 CELLS/uL
same,BASOPHIL,"72 h, time 3 day",0%
same,EOSINOPHIL,"72 h, time 3 day",0.67%
same,ERYTHROCYTE COUNT,"72 h, time 3 day",4.67 x10E6/uL
same,HEMATOCRIT,"72 h, time 3 day",29.03%
same,HEMOGLOBIN,"72 h, time 3 day",11 G/DL
same,LEUKOCYTE COUNT,"72 h, time 3 day",11.63 x10E3/uL
same,LYMPHOCYTE,"72 h, time 3 day",90.33%
same,MEAN CORPUSCULAR HEMOGLOBIN,"72 h, time 3 day",23.63 pg
same,MEAN CORPUSCULAR HEMOGLOBIN CONCENTRATION,"72 h, time 3 day",37.93 G/DL
same,MEAN CORPUSCULAR VOLUME,"72 h, time 3 day",62.43 fL
same,MONOCYTE,"72 h, time 3 day",2.33%
same,NEUTROPHIL,"72 h, time 3 day",6.67%
same,NUCLEATED RED BLOOD CELLS,"72 h, time 3 day",0.67 /100WBC
same,PLATELET COUNT,"72 h, time 3 day",1479.33 x10E3/uL
same,ALANINE AMINOTRANSFERASE,"72 h, time 3 day",36 u/L
same,ALBUMIN,"72 h, time 3 day",3.27 G/DL
same,ALKALINE PHOSPHATASE,"72 h, time 3 day",238.33 u/L
same,ASPARTATE AMINOTRANSFERASE,"72 h, time 3 day",81 u/L
same,BLOOD UREA NITROGEN,"72 h, time 3 day",15.33 mg/dL
same,CARBON DIOXIDE,"72 h, time 3 day",22.67 mmol/L
same,CHLORIDE,"72 h, time 3 day",105.67 MEQ/L
same,CHOLESTEROL,"72 h, time 3 day",61 mg/dL
same,CREATINE PHOSPHOKINASE,"72 h, time 3 day",371.33 u/L
same,CREATININE,"72 h, time 3 day",0.17 mg/dL
same,GLUCOSE,"72 h, time 3 day",145 mg/dL
same,LACTATE DEHYDROGENASE,"72 h, time 3 day",371.33 u/L
same,LIPASE,"72 h, time 3 day",7.67 u/L
same,PHOSPHORUS,"72 h, time 3 day",9.1 mg/dL
same,POTASSIUM,"72 h, time 3 day",6.96 MEQ/L
same,SODIUM,"72 h, time 3 day",144.97 MEQ/L
same,TOTAL BILIRUBIN,"72 h, time 3 day",0.17 mg/dL
same,TOTAL PROTEIN,"72 h, time 3 day",5.3 G/DL
same,URIC ACID,"72 h, time 3 day",1.73 mg/dL
same,ABSOLUTE BASOPHIL,"120 h, time 5 day",0 CELLS/uL
same,ABSOLUTE EOSINOPHIL,"120 h, time 5 day",0 CELLS/uL
same,ABSOLUTE LYMPHOCYTE,"120 h, time 5 day",6143.67 CELLS/uL
same,ABSOLUTE MONOCYTE,"120 h, time 5 day",159 CELLS/uL
same,ABSOLUTE SEGMENTED NEUTROPHIL,"120 h, time 5 day",330.67 CELLS/uL
same,BASOPHIL,"120 h, time 5 day",0%
same,EOSINOPHIL,"120 h, time 5 day",0%
same,ERYTHROCYTE COUNT,"120 h, time 5 day",5.45 x10E6/uL
same,HEMATOCRIT,"120 h, time 5 day",32.83%
same,HEMOGLOBIN,"120 h, time 5 day",12.27 G/DL
same,LEUKOCYTE COUNT,"120 h, time 5 day",6.63 x10E3/uL
same,LYMPHOCYTE,"120 h, time 5 day",93%
same,MEAN CORPUSCULAR HEMOGLOBIN,"120 h, time 5 day",22.5 pg
same,MEAN CORPUSCULAR HEMOGLOBIN CONCENTRATION,"120 h, time 5 day",37.37 G/DL
same,MEAN CORPUSCULAR VOLUME,"120 h, time 5 day",60.13 fL
same,MONOCYTE,"120 h, time 5 day",2.33%
same,NEUTROPHIL,"120 h, time 5 day",4.67%
same,NUCLEATED RED BLOOD CELLS,"120 h, time 5 day",0 /100WBC
same,PLATELET COUNT,"120 h, time 5 day",878 x10E3/uL
same,ALANINE AMINOTRANSFERASE,"120 h, time 5 day",45.67 u/L
same,ALBUMIN,"120 h, time 5 day",3.57 G/DL
same,ALKALINE PHOSPHATASE,"120 h, time 5 day",214.33 u/L
same,ASPARTATE AMINOTRANSFERASE,"120 h, time 5 day",96.33 u/L
same,BLOOD UREA NITROGEN,"120 h, time 5 day",18 mg/dL
same,CARBON DIOXIDE,"120 h, time 5 day",26.5 mmol/L
same,CHLORIDE,"120 h, time 5 day",104.5 MEQ/L
same,CHOLESTEROL,"120 h, time 5 day",69.5 mg/dL
same,CREATINE PHOSPHOKINASE,"120 h, time 5 day",269.67 u/L
same,CREATININE,"120 h, time 5 day",0.18 mg/dL
same,GLUCOSE,"120 h, time 5 day",163 mg/dL
same,LACTATE DEHYDROGENASE,"120 h, time 5 day",182.67 u/L
same,LIPASE,"120 h, time 5 day",8 u/L
same,PHOSPHORUS,"120 h, time 5 day",11.1 mg/dL
same,POTASSIUM,"120 h, time 5 day",5.69 MEQ/L
same,SODIUM,"120 h, time 5 day",146.25 MEQ/L
same,TOTAL BILIRUBIN,"120 h, time 5 day",0.1 mg/dL
same,TOTAL PROTEIN,"120 h, time 5 day",5.8 G/DL
same,URIC ACID,"120 h, time 5 day",1.35 mg/dL
